From patent publication US11072612B2, “NLRP3 modulators” (INNATE TUMOR IMMUNITY, INC., priority 2016, dated 2021)

Key:
Assay type in all cases: cell-based
TLR8 = biological target: T1, TLR8 (Homo sapiens, UniProt Q9NR97); assay: TLR8 EC50 assay; conditions: Table 2
T1 sequence (Q9NR97 27-1041): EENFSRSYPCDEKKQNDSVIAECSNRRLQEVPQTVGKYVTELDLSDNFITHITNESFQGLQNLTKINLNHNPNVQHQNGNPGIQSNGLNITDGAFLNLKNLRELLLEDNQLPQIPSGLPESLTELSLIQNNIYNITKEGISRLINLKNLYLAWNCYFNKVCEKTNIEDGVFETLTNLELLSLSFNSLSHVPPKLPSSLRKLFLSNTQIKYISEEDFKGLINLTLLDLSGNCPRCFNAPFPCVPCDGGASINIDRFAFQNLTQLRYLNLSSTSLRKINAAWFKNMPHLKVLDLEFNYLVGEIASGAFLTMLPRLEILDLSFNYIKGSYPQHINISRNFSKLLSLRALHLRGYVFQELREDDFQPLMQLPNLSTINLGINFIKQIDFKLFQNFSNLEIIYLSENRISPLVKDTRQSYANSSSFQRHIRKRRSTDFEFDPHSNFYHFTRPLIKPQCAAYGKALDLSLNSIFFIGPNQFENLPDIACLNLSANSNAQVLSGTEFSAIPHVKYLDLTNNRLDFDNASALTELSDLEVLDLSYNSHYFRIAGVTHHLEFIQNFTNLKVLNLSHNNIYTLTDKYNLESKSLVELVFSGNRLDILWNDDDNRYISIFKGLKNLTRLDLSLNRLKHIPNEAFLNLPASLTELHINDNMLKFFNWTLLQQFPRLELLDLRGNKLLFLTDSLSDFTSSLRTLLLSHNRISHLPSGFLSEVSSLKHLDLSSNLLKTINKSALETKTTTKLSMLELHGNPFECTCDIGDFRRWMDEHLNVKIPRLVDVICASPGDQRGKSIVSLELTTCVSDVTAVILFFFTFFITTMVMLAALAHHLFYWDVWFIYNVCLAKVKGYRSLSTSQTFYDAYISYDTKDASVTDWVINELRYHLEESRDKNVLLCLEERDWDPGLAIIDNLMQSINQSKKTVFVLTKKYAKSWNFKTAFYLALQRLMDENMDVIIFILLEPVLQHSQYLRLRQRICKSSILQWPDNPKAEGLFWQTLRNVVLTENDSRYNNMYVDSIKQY

hNLRP3 = biological target: T2, hNLRP3 (Homo sapiens, UniProt Q96P20); assay: hNLRP3 agonist assay: IL-1β production in PMA-differentiated THP-1 cells (ELISA); conditions: Table 2, 4 hours, IL-1β by ELISA
T2 construct: THP-1 cells were purchased from the American Type Culture Collection; host or cells: THP-1 cells, PMA-differentiated
Procedure: THP-1 cells were purchased from the American Type Culture Collection and sub-cultured according to instructions from the supplier. Prior to experiments, cells were cultured in RPMI 1640 containing 10% heat inactivated FBS, penicillin (100 units/ml) and streptomycin (100 μg/ml), and maintained in log phase prior to experimental setup. Prior to the experiment THP-1 were treated with PMA (Phorbol 12-myristate 13-acetate) (10 μg/ml) for 24 hours. The day of the experiment the media was removed and attaching cells were treated with trypsin for 2 minutes, cells were then collected, washed with PBS (phosphate buffer saline), spin down, resuspended in 2% heat inactivated FBS with RPMI at a concentration of 1×10^6 cells/ml, and 100 μl was plated in a 96 well plate. Cells were incubated with compounds for 4 hours. Cell free supernatant was collected and the production of IL-1β was evaluated by ELISA. Compounds were dissolved in dimethyl sulfoxide (DMSO) and added to the culture medium to achieve desired concentration (e.g. 100, 30, 10, 3, 1, 0.3 or 0.1 μM). A vehicle only control was run concurrently with each experiment. Final DMSO concentration was 1%.

TLR7 = biological target: T3, TLR7 (Homo sapiens, UniProt Q9NYK1); assay: TLR7 EC50 assay; conditions: Table 2
T3 sequence (Q9NYK1 27-1049): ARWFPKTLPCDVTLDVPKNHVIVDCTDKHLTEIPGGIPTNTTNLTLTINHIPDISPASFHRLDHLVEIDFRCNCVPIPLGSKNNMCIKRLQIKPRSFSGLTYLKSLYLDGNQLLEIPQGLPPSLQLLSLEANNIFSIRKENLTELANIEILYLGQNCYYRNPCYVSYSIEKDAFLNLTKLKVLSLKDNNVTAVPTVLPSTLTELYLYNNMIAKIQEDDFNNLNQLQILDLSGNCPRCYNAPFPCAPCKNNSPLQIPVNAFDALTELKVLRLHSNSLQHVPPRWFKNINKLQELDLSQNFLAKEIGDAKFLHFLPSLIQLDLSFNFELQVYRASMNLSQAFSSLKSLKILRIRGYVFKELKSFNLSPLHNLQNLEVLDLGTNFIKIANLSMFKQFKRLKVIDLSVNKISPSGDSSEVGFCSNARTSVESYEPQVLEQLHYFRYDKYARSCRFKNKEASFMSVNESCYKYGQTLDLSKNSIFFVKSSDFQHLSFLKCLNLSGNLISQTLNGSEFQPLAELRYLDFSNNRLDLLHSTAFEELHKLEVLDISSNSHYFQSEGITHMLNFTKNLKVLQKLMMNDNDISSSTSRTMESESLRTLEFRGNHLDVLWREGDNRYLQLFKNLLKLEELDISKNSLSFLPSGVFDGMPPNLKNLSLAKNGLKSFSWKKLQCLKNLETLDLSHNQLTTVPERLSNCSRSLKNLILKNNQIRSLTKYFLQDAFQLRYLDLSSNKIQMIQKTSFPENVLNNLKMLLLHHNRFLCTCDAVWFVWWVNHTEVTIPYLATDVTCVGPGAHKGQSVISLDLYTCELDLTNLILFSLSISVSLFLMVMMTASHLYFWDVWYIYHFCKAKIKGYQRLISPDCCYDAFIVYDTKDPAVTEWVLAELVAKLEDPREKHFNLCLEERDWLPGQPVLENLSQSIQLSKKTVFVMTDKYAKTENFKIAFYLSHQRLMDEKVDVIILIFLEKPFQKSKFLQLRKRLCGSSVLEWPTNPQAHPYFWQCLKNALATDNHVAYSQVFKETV

T2 sequence (Q96P20 whole entry): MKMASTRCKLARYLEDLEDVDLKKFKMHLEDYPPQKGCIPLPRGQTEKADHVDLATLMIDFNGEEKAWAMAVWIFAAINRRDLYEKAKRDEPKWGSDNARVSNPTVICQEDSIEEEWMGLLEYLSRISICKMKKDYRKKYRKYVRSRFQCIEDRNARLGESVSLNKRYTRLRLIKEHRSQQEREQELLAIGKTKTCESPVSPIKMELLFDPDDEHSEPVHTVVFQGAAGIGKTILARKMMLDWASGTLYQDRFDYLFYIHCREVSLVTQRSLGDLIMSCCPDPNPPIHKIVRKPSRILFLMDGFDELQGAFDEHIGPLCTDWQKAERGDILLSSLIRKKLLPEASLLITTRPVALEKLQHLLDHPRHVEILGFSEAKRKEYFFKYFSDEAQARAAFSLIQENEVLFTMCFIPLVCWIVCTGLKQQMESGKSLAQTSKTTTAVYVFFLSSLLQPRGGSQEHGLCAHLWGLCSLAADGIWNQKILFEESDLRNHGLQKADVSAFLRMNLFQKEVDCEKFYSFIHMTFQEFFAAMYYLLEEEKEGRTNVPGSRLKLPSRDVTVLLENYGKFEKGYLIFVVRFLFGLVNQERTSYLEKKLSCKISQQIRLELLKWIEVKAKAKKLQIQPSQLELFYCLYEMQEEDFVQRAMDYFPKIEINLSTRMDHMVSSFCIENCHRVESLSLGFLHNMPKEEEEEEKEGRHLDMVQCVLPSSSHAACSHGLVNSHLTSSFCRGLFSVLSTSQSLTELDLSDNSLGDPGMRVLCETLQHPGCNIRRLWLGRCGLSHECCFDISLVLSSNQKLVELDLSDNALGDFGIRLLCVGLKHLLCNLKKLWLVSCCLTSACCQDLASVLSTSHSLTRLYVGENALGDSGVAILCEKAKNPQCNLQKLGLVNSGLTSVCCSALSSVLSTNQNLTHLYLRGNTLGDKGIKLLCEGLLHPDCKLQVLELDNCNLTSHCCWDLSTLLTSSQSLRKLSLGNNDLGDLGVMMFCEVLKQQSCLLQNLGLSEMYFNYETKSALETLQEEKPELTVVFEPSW

Row | SMILES | EC50 (TLR8) [µM] | EC50 (hNLRP3) [µM] | EC50 (TLR7) [µM]
1 | Nc1nc2cc(NC(=O)c3ccccc3)ccc2c2[nH]c(CCCO)nc12 [Compound 180, N-[4-amino-2-(3-hydroxypropyl)-1H-imidazo[4,5-c]quinolin-7-yl]benzamide] | > 100 | > 100 | > 100
2 | Cc1cnn(-c2ccc3c(c2)nc(N)c2nc(CCCO)[nH]c23)c1 [Compound 181, 3-[4-amino-7-(4-methylpyrazol-1-yl)-1H-imidazo[4,5-c]quinolin-2-yl]propan-1-ol] | > 100 | 1 to 20 | > 100
3 | Nc1nc2cc(-n3cnc4ccccc43)ccc2c2[nH]c(CCCO)nc12 [Compound 182, 3-[4-amino-7-(benzimidazol-1-yl)-1H-imidazo[4,5-c]quinolin-2-yl]propan-1-ol] | > 100 | > 100 | > 100
4 | Nc1nc2cc(N3CCCC3=O)ccc2c2[nH]c(CCCO)nc12 [Compound 183, 1-[4-amino-2-(3-hydroxypropyl)-1H-imidazo[4,5-c]quinolin-7-yl]pyrrolidin-2-one] | > 100 | 20 to 100 | > 100
5 | Nc1nc2cc(-c3nccs3)ccc2c2[nH]c(CCCO)nc12 [Compound 184, 3-[4-amino-7-(1,3-thiazol-2-yl)-1H-imidazo[4,5-c]quinolin-2-yl]propan-1-ol] | > 100 | > 100 | > 100
6 | Nc1nc2cc(-c3ccccn3)ccc2c2[nH]c(CCCO)nc12 [Compound 185, 3-(4-amino-7-pyridin-2-yl-1H-imidazo[4,5-c]quinolin-2-yl)propan-1-ol] | > 100 | ≤ 1 | > 100
7 | Nc1nc2cc(-c3ccsc3)ccc2c2[nH]c(CCCO)nc12 [Compound 186, 3-(4-amino-7-thiophen-3-yl-1H-imidazo[4,5-c]quinolin-2-yl)propan-1-ol] | > 100 | ≤ 1 | > 100
8 | Nc1nc2cc(-c3cccs3)ccc2c2[nH]c(CCCO)nc12 [Compound 187, 3-(4-amino-7-thiophen-2-yl-1H-imidazo[4,5-c]quinolin-2-yl)propan-1-ol] | > 100 | ≤ 1 | > 100
9 | Nc1nc2cc(-c3cncnc3)ccc2c2[nH]c(CCCO)nc12 [Compound 188, 3-(4-amino-7-pyrimidin-5-yl-1H-imidazo[4,5-c]quinolin-2-yl)propan-1-ol] | > 100 | 20 to 100 | > 100
10 | Nc1nc2cc(-c3cc[nH]n3)ccc2c2[nH]c(CCCO)nc12 [Compound 189, 3-[4-amino-7-(1H-pyrazol-3-yl)-1H-imidazo[4,5-c]quinolin-2-yl]propan-1-ol] | > 100 | ≤ 1 | > 100

Continued, values first:

Row | EC50 (TLR8) [µM] | EC50 (hNLRP3) [µM] | EC50 (TLR7) [µM] | SMILES
11 | > 100 | > 100 | > 100 | Nc1nc2cc(N3CCOCC3)ccc2c2[nH]c(CCCO)nc12 [Compound 168, 3-(4-amino-7-morpholin-4-yl-1H-imidazo[4,5-c]quinolin-2-yl)propan-1-ol]
12 | > 100 | 1 to 20 | > 100 | CN(C)C(=O)CCCn1c(CCCO)nc2c(N)nc3cc(Br)ccc3c21 [Compound 169]
13 | > 100 | > 100 | > 100 | Nc1ccc(-c2ccc3c(c2)nc(N)c2nc(CCCO)[nH]c23)cn1 [Compound 170, 3-[4-amino-7-(6-aminopyridin-3-yl)-1H-imidazo[4,5-c]quinolin-2-yl]propan-1-ol]
14 | > 100 | > 100 | > 100 | COc1ccncc1-c1ccc2c(c1)nc(N)c1nc(CCCO)[nH]c12 [Compound 171, 3-[4-amino-7-(4-methoxypyridin-3-yl)-1H-imidazo[4,5-c]quinolin-2-yl]propan-1-ol]
15 | > 100 | > 100 | > 100 | Cc1ccc(-c2ccc3c(c2)nc(N)c2nc(CCCO)[nH]c23)cn1 [Compound 172, 3-[4-amino-7-(6-methylpyridin-3-yl)-1H-imidazo[4,5-c]quinolin-2-yl]propan-1-ol]
16 | > 100 | > 100 | > 100 | CSc1ccc(-c2ccc3c(c2)nc(N)c2nc(CCCO)[nH]c23)cn1 [Compound 173, 3-[4-amino-7-(6-methylsulfanylpyridin-3-yl)-1H-imidazo[4,5-c]quinolin-2-yl]propan-1-ol]
17 | > 100 | 20 to 100 | > 100 | Nc1nc2cc(C3CCCCC3)ccc2c2[nH]c(CCCO)nc12 [Compound 174, 3-(4-amino-7-cyclohexyl-1H-imidazo[4,5-c]quinolin-2-yl)propan-1-ol]
18 | > 100 | > 100 | > 100 | COc1cncc(-c2ccc3c(c2)nc(N)c2nc(CCCO)[nH]c23)c1 [Compound 175, 3-[4-amino-7-(5-methoxypyridin-3-yl)-1H-imidazo[4,5-c]quinolin-2-yl]propan-1-ol]
19 | > 100 | > 100 | > 100 | Nc1nc2cc(-c3ccc(O)nc3)ccc2c2[nH]c(CCCO)nc12 [Compound 176, 5-[4-amino-2-(3-hydroxypropyl)-1H-imidazo[4,5-c]quinolin-7-yl]pyridin-2-ol]
20 | > 100 | > 100 | > 100 | CN(C)c1nc(-c2ccc3c(c2)nc(N)c2nc(CCCO)[nH]c23)cs1 [Compound 177, 3-[4-amino-7-[2-(dimethylamino)-1,3-thiazol-4-yl]-1H-imidazo[4,5-c]quinolin-2-yl]propan-1-ol]
21 | 20 to 100 | ≤ 1 | > 100 | Nc1nc2cc(-n3cccn3)ccc2c2[nH]c(CCCO)nc12 [Compound 178, 3-(4-amino-7-pyrazol-1-yl-1H-imidazo[4,5-c]quinolin-2-yl)propan-1-ol]
22 | > 100 | > 100 | > 100 | Nc1nc2cc(-n3ccnc3)ccc2c2[nH]c(CCCO)nc12 [Compound 179, 3-(4-amino-7-imidazol-1-yl-1H-imidazo[4,5-c]quinolin-2-yl)propan-1-ol]
